“And” between values parts separate entries of the source, which are not always exact repeats. Equal values may be shown once.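 Tested at 5 concentrations; 48 h exposure; 96-well plates; endpoints linearly interpolated, else capped at highest concentration. Abbreviation: GI50, concentration required for 50% inhibition of growth. Definition used: TGI = concentration required for complete inhibition of growth.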
Tests used:
Assay in all cases: growth of human tumour cells (NCI), 48 h
HCT-15 colon = test system: HCT-15 colon
LOX IMVI melanoma = test system: LOX IMVI melanoma
SF-295 CNS = test system: SF-295 CNS
SK-OV-3 ovarian = test system: SK-OV-3 ovarian
HOP-62 NSCLC = test system: HOP-62 NSCLC
NCI-H226 lung = test system: NCI-H226 lung
COLO 205 colon = test system: COLO 205 colon
UO-31 renal = test system: UO-31 renal
T-47D breast = test system: T-47D breast
786-0 renal = test system: 786-0 renal
SF-268 CNS = test system: SF-268 CNS
SNB-19 CNS = test system: SNB-19 CNS
HOP-92 NSCLC = test system: HOP-92 NSCLC
NCI-H522 lung = test system: NCI-H522 lung

Structure (SMILES) | TGI (HCT-15 colon) | TGI (LOX IMVI melanoma) | TGI (SF-295 CNS) | TGI (SK-OV-3 ovarian) | TGI (HOP-62 NSCLC) | TGI (NCI-H226 lung) | TGI (COLO 205 colon) | TGI (UO-31 renal) | TGI (T-47D breast) | TGI (786-0 renal) | TGI (SF-268 CNS) | TGI (SNB-19 CNS) | TGI (HOP-92 NSCLC) | TGI (NCI-H522 lung) | GI50 (LOX IMVI melanoma) | GI50 (SK-OV-3 ovarian) | GI50 (COLO 205 colon) | GI50 (T-47D breast) | GI50 (SF-268 CNS)
CN(C)S(=O)(=O)/N=C/c1cccc(/C=N/S(=O)(=O)N(C)C)c1 | > 100 µM | > 100 µM | > 100 µM | > 100 µM | > 100 µM | > 100 µM | > 100 µM | > 100 µM | > 100 µM | > 100 µM | > 100 µM | > 100 µM | > 100 µM | – | – | – | – | – | –
CNC(=O)N(CCC#N)CCCN(C(=O)NC)c1ccccc1 | > 100 µM | > 100 µM | > 100 µM | > 100 µM | > 100 µM | > 100 µM | > 100 µM | > 100 µM | > 100 µM | > 100 µM | – | > 100 µM | > 100 µM | > 100 µM | – | – | – | – | –
CO/N=C(\C(=O)N(C)n1cnnc1)c1csc(NC(c2ccccc2)(c2ccccc2)c2ccccc2)n1 | > 10 µM | > 10 µM | > 10 µM | > 10 µM | > 10 µM | > 10 µM | > 10 µM | > 10 µM | > 10 µM | > 10 µM | > 10 µM | > 10 µM | > 10 µM | > 10 µM | – | – | – | – | –
O=c1oc2ccccc2c(O)c1/C=N/C(=S)NCCc1ccccc1 | > 100 µM | > 100 µM | > 100 µM | > 63.8 µM | > 100 µM | > 100 µM | > 100 µM | > 74.6 µM | > 100 µM | > 100 µM | > 100 µM | > 100 µM | > 74.7 µM | 87.4 µM | – | – | – | – | –
O=C1NC(=O)C2(CCCCCC2)N1 | > 100 µM | > 100 µM | > 100 µM | > 100 µM | > 100 µM | > 100 µM | > 100 µM | > 100 µM | > 100 µM | > 100 µM | > 100 µM | > 100 µM | > 100 µM | > 100 µM | – | – | – | – | –
CC(=O)CSc1c(-c2ccccc2)c(=O)n(-c2ccccc2)c(=S)n1-c1ccccc1 | > 100 µM | > 100 µM | > 100 µM | > 100 µM | > 100 µM | > 100 µM | > 100 µM | > 100 µM | > 100 µM | > 100 µM | > 100 µM | > 100 µM | > 100 µM | > 100 µM | – | – | – | – | –
COC(CC1(/C=C/O[Si](C(C)C)(C(C)C)C(C)C)C(=O)N(C)c2ccccc21)OC (centres undefined) | > 100 µM | > 100 µM | > 100 µM | > 100 µM | > 100 µM | 90 µM | > 100 µM | > 100 µM | > 100 µM | 71.6 µM | > 100 µM | > 100 µM | > 100 µM | – | – | – | – | – | –
CC(=O)Nc1ccc(-c2nc3ccccc3s2)cc1I | > 100 µM | > 81.7 µM | > 100 µM | 38.2 µM | 39 µM | 59.4 µM | > 100 µM | 67.9 µM | > 93.2 µM | 44.5 µM | 97.4 µM | > 87.5 µM | > 88.9 µM | > 100 µM | – | – | – | – | –
c1cc2c(c(NC3=NCCO3)c1)CCC2 | > 100 µM | > 100 µM | > 100 µM | > 100 µM | > 100 µM | > 100 µM | > 100 µM | > 100 µM | > 100 µM | > 100 µM | > 100 µM | > 100 µM | > 100 µM | > 100 µM | – | – | – | – | –
c1ccc(CNCCCCNCCCNCc2ccccc2)cc1 | 39.4 µM | 32.7 µM | > 100 µM | > 100 µM | 60.8 µM | 41.4 µM | 27.6 µM | 52.4 µM | > 100 µM | 31.4 µM | 51.8 µM | 32.7 µM | 25.3 µM | 31 µM | – | – | – | – | –
COc1ccc2[nH]cc([C@@H]3C4CCC(C4)[C@H]3NCc3cccc(CN[C@H]4C5CCC(C5)[C@@H]4c4c[nH]c5ccc(OC)cc45)c3)c2c1 | 1.95 µM and 2.39 µM | 0.328 µM and 0.605 µM | 2.97 µM and 3.08 µM | 2.94 µM and 2.95 µM | 2.89 µM and 2.97 µM | 3.64 µM | 1.2 µM and 0.427 µM | 2.85 µM and 2.64 µM | 2.95 µM | 1.9 µM and 2 µM | 2.52 µM and 2.93 µM | 2.94 µM | 2.6 µM and 2.59 µM | 2.48 µM and 2.83 µM | 0.184 µM | 1.6 µM | 0.206 µM | 1.33 µM | 1.23 µM
CC1=CC[C@@]2(CO)[C@@H]([C@@H]1C)[C@H]1CC[C@@H]3[C@@]4(C)CC[C@H](O)C(C)(C)[C@@H]4CC[C@@]3(C)[C@]1(C)C[C@@H]2O | > 100 µM | 45.2 µM | 58.4 µM | 39.4 µM | 39.8 µM | 81.4 µM | 50.2 µM | > 100 µM | 75.1 µM | > 100 µM | > 100 µM | > 100 µM | 44 µM | 42.8 µM | – | – | – | – | –
CCOC(=O)[C@@]12C[C@](/C=C/OC)(O[Si](C)(C)C)[C@@]13c1cc(OC)c(OC)cc1CCN3C(=O)C2O (some centres undefined) | > 100 µM | > 100 µM | > 100 µM | > 100 µM | > 100 µM | > 100 µM | > 100 µM | > 100 µM | > 100 µM | > 100 µM | > 100 µM | > 100 µM | > 100 µM | – | – | – | – | – | –
Clc1cc(Cl)cc(C2ON=C(c3ccccc3)N2C23CC4CC(CC(C4)C2)C3)c1 (centres undefined) | > 10 µM | > 10 µM | > 10 µM | > 10 µM | > 10 µM | > 10 µM | > 10 µM | > 10 µM | > 10 µM | > 10 µM | > 10 µM | > 10 µM | > 10 µM | > 10 µM | – | – | – | – | –
CCOC(=O)c1cnc2n(c1=N)[C@H]1CCCC[C@@H]1N2 | > 100 µM | > 100 µM | > 100 µM | > 100 µM | – | > 100 µM | > 100 µM | > 100 µM | > 100 µM | > 100 µM | > 100 µM | > 100 µM | > 100 µM | > 100 µM | – | – | – | – | –
COC(=O)/C=C1/CCC(C)(C(=O)NS(=O)(=O)c2ccc(C)cc2)C1(C)C (centres undefined) | > 100 µM | > 100 µM | > 100 µM | > 100 µM | > 100 µM | > 100 µM | > 100 µM | > 100 µM | > 100 µM | > 100 µM | > 100 µM | > 100 µM | > 100 µM | > 100 µM | – | – | – | – | –
